{"source": "patent US20100190686A1", "about": "“NOVEL SECRETED PROTEINS OF ADIPOCYTES FOR DIAGNOSTIC PURPOSES” (The University of Georgia Research Foundation, priority 2007, published 2010)", "key": {"[1]": {"details": "type 2 diabetes, randomized controlled trial, cited from earlier work"}, "rat primary adipocytes [2]": {"system": "rat primary adipocytes", "assay": "O-GlcNAc levels by Western blot (RL-2 antibody) of whole-cell extracts, rat primary adipocytes", "format": "cell-based", "details": "PUGNAc 100 μM vs low glucose (LG), FIG. 1", "text": "Rat Primary cell culture: inguinal and retroperitoneal fat pads were removed aseptically from male Sprague-Dawley rats (Harlan Industries, Indianapolis, Ind.) and primary preadipocytes were isolated as described in detail previously^26,27. After additional washing and centrifugation steps, the preadipocyte pellet was resuspended in plating medium (high glucose DMEM, antibiotics: PS, 10% FBS) and seeded at an average density of 1.35×10^4 cells/cm^2 for inguinal and 1.63×10^3 cells/cm^2 for retroperitoneal on 10 cm dishes for the differentiation. Primary cells were maintained in a humidified atmosphere containing 5% CO2 in air at 37° C. and cultured to confluence, changing the plating medium every 2 days. After 2 days of confluence, referred to as day 0, the medium was replaced with differentiation medium (high glucose DMEM containing antibiotics and 10% FBS, 0.25 mM MIX, 0.1 μM dexamethasone, and 17 nM insulin) and at day 2, an additional 17 nM of insulin was administered with the plating medium for an additional 48 hrs incubation. The cells were maintained in low glucose DMEM containing 10% FBS and treatments (see below) until harvest. […]"}, "rat primary adipocytes [3]": {"system": "rat primary adipocytes", "assay": "Quantitative LC-MS/MS and 2D-LC-MS/MS analysis of the secreted proteome of primary rat adipocytes", "format": "cell-based", "text": "Rat Primary cell culture: inguinal and retroperitoneal fat pads were removed aseptically from male Sprague-Dawley rats (Harlan Industries, Indianapolis, Ind.) and primary preadipocytes were isolated as described in detail previously^26,27. After additional washing and centrifugation steps, the preadipocyte pellet was resuspended in plating medium (high glucose DMEM, antibiotics: PS, 10% FBS) and seeded at an average density of 1.35×10^4 cells/cm^2 for inguinal and 1.63×10^3 cells/cm^2 for retroperitoneal on 10 cm dishes for the differentiation. Primary cells were maintained in a humidified atmosphere containing 5% CO2 in air at 37° C. and cultured to confluence, changing the plating medium every 2 days. After 2 days of confluence, referred to as day 0, the medium was replaced with differentiation medium (high glucose DMEM containing antibiotics and 10% FBS, 0.25 mM MIX, 0.1 μM dexamethasone, and 17 nM insulin) and at day 2, an additional 17 nM of insulin was administered with the plating medium for an additional 48 hrs incubation. The cells were maintained in low glucose DMEM containing 10% FBS and treatments (see below) until harvest.\n(§1) On the designated days (day 4 for 3T3-L1, day 5 for 3T3-F442A, and day 9 for rat primary adipocytes), adipocytes were induced with a combined treatment of low or high glucose containing 10% FBS, with or without insulin (100 nM) and PUGNAc (100 μM, TRC Inc.) according to the experimental conditions described in the results. After 24 hrs incubation, the medium was removed and the cells were washed five times with low or high glucose serum-free DMEM without antibiotics and vitamins and incubated with the last rinse for 15 min. After the final wash was removed, serum-free media supplemented with insulin (1 nM) or PUGNAc (100 μM) was added and cells were incubated for 16 hrs.\nAfter incubation, the conditioned media were harvested with extreme care and then centrifuged once at 1,800 rpm at 4° C. for 7 min. The supernatants were filtered using 1 μm syringe filters (PALL). The samples were then collected in centrifuge tubes and centrifuged again at 30,000×G at 4° C. for 30 min. The samples were then transferred to an equilibrated spin column (Centriprep YM-3, Amicon, Millipore) and buffer-exchanged at 2,800 G and 4° C. into 40 mM ammonium bicarbonate (NH4HCO3) plus 1 mM DTT and concentrated. The concentrated samples were denatured with 1 M urea, reduced with 10 mM DTT for 1 hr at 56° C., carboxyamidomethylated with 55 mM iodoacetamide in the dark for 45 min, and then digested with 5 μg trypsin (Promega) in 40 mM NH4HCO3 overnight at 37° C. After digestion, the peptides were acidified with 200 μl of 1% trifluoroacetic acid (TFA). Desalting was subsequently performed with C18 spin columns (Vydac Silica C18, The Nest Group, Inc.), and the resulting peptides were dried down in a Speed Vac and stored at −20° C. until analyzed. For the subset of samples to be analyzed for N-linked glycosylation, peptides were resuspended in 19 μl ^18O-water and 1 μl of N-glycanase (PNGaseF, Prozyme) and allowed to incubate for 18 hours at 37° C. Peptides were dried back down and resuspended in 50 μl of 40 mM NH4HCO3 with 1 μg of trypsin, to remove any possible C-terminal incorporation of ^18O from residual trypsin activity^28, for 4 hours and then dried down and stored at −20° C. until analyzed.\nThe peptides were resuspended with 78 μl of mobile phase A (0.1% formic acid, FA, in water) and 2 μl of mobile phase B (80% acetonitrile, ACN, and 0.1% formic acid in water) and filtered with 0.2 μm filters (Nanosep, PALL). The samples were loaded off-line onto a nanospray tapered capillary column/emitter (360×75×15 μm, PicoFrit, New Objective) self-packed with C18 reverse-phase (RP) resin (8.5 cm, Waters) in a Nitrogen pressure bomb for 10 min at 1,000 p.s.i. (˜5 ul load) and then separated via a 160-min linear gradient of increasing mobile phase B at a flow rate of ˜200 nl/min directly into the mass spectrometer. […]"}, "adipocytes": {"system": "adipocytes", "details": "elevation of O-GlcNAc levels with PUGNAc; previously shown (ref 11); cited from earlier work"}, "3T3-L1 adipocytes": {"system": "3T3-L1 adipocytes", "assay": "O-GlcNAc levels by Western blot (RL-2 antibody) of whole-cell extracts, mouse immortalized adipocytes", "format": "cell-based", "details": "PUGNAc 100 μM vs low glucose (LG), FIG. 1", "protocol": "3T3s cell lines: 3T3-L1 and -F442A fibroblasts were maintained and differentiated on 10 cm plates essentially as previously described^11,25. Briefly, two days after the cells reached confluence, cells were induced to differentiate with high ([…], 3T3-L1) or low (3T3-F442A) glucose ([…]) DMEM containing 10% fetal bovine serum (3T3-L1) or 10% calf serum (3T3-F442A) via addition of 0.5 mM (115 μg/mL) 3-isobutyl-1-methyxanthine (MIX, Sigma), 1 μM (390 ng/mL) dexamethasone (Sigma), and 175 nM (1 μg/mL) recombinant insulin (human, Roche). After 48 hrs (day 2), the medium was replaced with high (3T3-L1) or low (3T3-F442A) glucose DMEM plus 10% FBS and supplemented with 1 μg/mL insulin for an additional 48 hrs. After 96 hrs (day 4), cells were maintained in appropriate medium depending on the condition being examined.\nas §1, with “After the final wash was removed, serum-free media supplemented with insulin (1 nM) or PUGNAc (100 μM) was added and cells were incubated for 16 hrs.” left out"}, "[4]": {"details": "PUGNAc treatment vs insulin responsive (LG) condition, same direction with HG+insulin, Table 5"}}}
{"smiles": "CN(CCOc1ccc(CC2SC(=O)NC2=O)cc1)c1ccccn1", "note": "(stereo not drawn) [rosiglitazone]", "values": [{"measurement": "weight gain and edema", "setting": "[1]; compared with metformin and glyburide", "value": "more weight gain and edema"}]}
{"smiles": "CC(=O)N[C@H]1/C(=N/OC(=O)Nc2ccccc2)O[C@H](CO)[C@@H](O)[C@@H]1O", "note": "[PUGNAc]", "values": [{"measurement": "O-GlcNAc levels", "setting": "rat primary adipocytes [2]", "value": "elevate O-GlcNAc levels significantly"}, {"measurement": "secretion of serine protease inhibitor 2C (reconstructed ion chromatogram of a peptide)", "setting": "rat primary adipocytes [3]; LG+PUG vs LG (normalized to 1.00), two biological replicates, FIG. 4A", "value": "upregulation"}, {"measurement": "secretion of tetranectin (reconstructed ion chromatogram of a peptide)", "setting": "rat primary adipocytes [3]; LG+PUG vs LG (normalized to 1.00), two biological replicates, FIG. 4B", "value": "upregulation"}, {"measurement": "secretion of cholesterol-binding protein NPC2", "setting": "rat primary adipocytes [3]; PUGNAc treatment vs insulin responsive (LG) condition, both insulin resistance conditions", "value": "upregulated"}, {"measurement": "secretion of GP-39", "setting": "rat primary adipocytes [3]; [4]", "value": "upregulation"}, {"measurement": "secretion of ceruloplasmin", "setting": "rat primary adipocytes [3]; [4]", "value": "upregulation"}, {"measurement": "secretion of fibulin-2", "setting": "rat primary adipocytes [3]; [4]", "value": "downregulated"}, {"measurement": "secretion of lipoprotein lipase", "setting": "rat primary adipocytes [3]; [4]", "value": "upregulation"}, {"measurement": "secretion of protein-S", "setting": "rat primary adipocytes [3]; [4]", "value": "upregulation"}, {"measurement": "secretion of slit homolog 3", "setting": "rat primary adipocytes [3]; [4]", "value": "downregulated"}, {"measurement": "secretion of spondin", "setting": "rat primary adipocytes [3]; [4]", "value": "upregulation"}, {"measurement": "induction of insulin resistance", "setting": "adipocytes", "value": "induces insulin resistance"}, {"measurement": "O-GlcNAc levels", "setting": "3T3-L1 adipocytes", "value": "elevate O-GlcNAc levels significantly"}]}
{"smiles": "CN(C)C(=N)N=C(N)N", "note": "[metformin]", "values": [{"measurement": "cumulative incidence of monotherapy failure at 5 years", "setting": "[1]; 5 years", "value": 21, "unit": "%"}]}
